Measurements reported in PMC5768729, “A partially-open inward-facing intermediate conformation of LeuT is associated with Na^+ release and substrate transport” (Nature Communications, 2018).
One block for each molecule: values may come before it.

How the values were obtained:
[1] = tested on: LeuT; test: Scintillation proximity assay, time course of 3H-substrate binding to LeuT with or without Na+ pre-incubation; parameters: species or system Aquifex aeolicus; settings: 3H-Leu 100 nM or 3H-Ala 500 nM, LeuT wild type
Protocol: We bound ^3H-leucine (140 Ci mmol^–1; Moravek) to purified LeuT-variants using the scintillation proximity assay (SPA) as described[17],[18] with 25 ng of purified protein per assay in buffer composed of 50 mM Tris/Mes (pH 8.0), 100 mM NaCl, 1 mM TCEP, 20% glycerol and 1 mM DDM.
Supplementary Figure 5. Pre-incubation of LeuT with Na+ modulates substrate binding.
The time course of binding of (a,c,d) 3H-Leu (100 nM) or (b) 3H-Ala (500 nM) to LeuT wild type (WT; a,b) or LeuT-L400S (c) or -F253A (d) in the absence (open black squares) or presence (filled red circles) of Na+ was measured using the scintillation proximity assay4 (see Methods). Data are shown as mean ± s.e.m. of three technical replicates of a representative experiment performed in parallel (experiments with individual mutants were repeated ≥ 2) and normalized with regard to the steady state level of LeuT-WT. […]

[2] = tested on: LeuT; test: smFRET imaging of intracellular-labeled LeuT (H7C/R86C), FRET state occupancy and dynamics; type: biochemical, Aquifex aeolicus
Protocol: Fluorescence experiments were performed using a prism-based total internal reflection fluorescence (TIRF) microscope as previously described[15],[16]. Microfluidic imaging chambers passivated with a mixture of PEG and biotin-PEG were prepared with 0.8 µM streptavidin (Invitrogen) and 4 nM biotin-tris-(NTA-Ni^2+)[46]. Fluorophore labeled, His-tagged LeuT molecules were reversibly immobilized to the surface-associated Ni^2+ atoms. LD550 (Cy3) fluorophores were excited by the evanescent wave generated by total internal reflection (TIR) of a 532 nm diode-pumped solid state laser (Opus, Laser Quantum). Photons emitted from LD550 (Cy3) and LD650 (Cy5) were collected using a 1.27 NA 60 × PlanApo water-immersion objective (Nikon) and a MultiCam-LS device (Cairn) with a T635lpxr-UF2 dichroic mirror (Chroma) to separate the spectral channels onto two synchronized sCMOS cameras (Flash 4.0 v2, Hamamatsu). Fluorescence data were acquired using custom software implemented in LabView (National Instruments) at 10 frames per second (100 ms time resolution).
Unless otherwise specified, all experiments were performed at 25 °C in buffer containing 50 mM Tris/Mes (pH 7.0), 10% glycerol, 1 mM DDM (Anatrace), 1 mM 2-mercaptoethanol and 200 mM total salt (KCl and NaCl, as specified). An oxygen-scavenging environment consisting of 0.2 units per ml purified glucose oxidase (Sigma G2133), 1.8 units per μl purified catalase (Sigma C40), 0.1% (v/v) glucose was used in all experiments to minimize photobleaching.
(§1) Analysis of single-molecule fluorescence data was performed using custom software written in MATLAB (MathWorks)[22]. […] FRET traces were calculated as EFRET=IA∕(IA+ID) , where IA and ID are the donor and acceptor fluorescence traces, and set to zero whenever the donor was in the dark state. […] SNRSignal (12:1 on average) is the signal magnitude relative to noise within the fluorescence trace prior to photobleaching, which includes all noise sources, including photon statistics and photophysical noise, in addition to background noise. […]

[3] = tested on: LeuT; test: smFRET imaging of extracellular-labeled LeuT (K239C/H480C), FRET state occupancy and dynamics; type: biochemical, Aquifex aeolicus; settings: no substrate
Protocol: Fluorescence experiments were performed using a prism-based total internal reflection fluorescence (TIRF) microscope as previously described[15],[16]. Microfluidic imaging chambers passivated with a mixture of PEG and biotin-PEG were prepared with 0.8 µM streptavidin (Invitrogen) and 4 nM biotin-tris-(NTA-Ni^2+)[46]. Fluorophore labeled, His-tagged LeuT molecules were reversibly immobilized to the surface-associated Ni^2+ atoms. LD550 (Cy3) fluorophores were excited by the evanescent wave generated by total internal reflection (TIR) of a 532 nm diode-pumped solid state laser (Opus, Laser Quantum). […] Fluorescence data were acquired using custom software implemented in LabView (National Instruments) at 10 frames per second (100 ms time resolution). […]
as §1

Effect of pre-incubating LeuT with Na+ on the rate of substrate binding [1]: no such delay in binding
Compound: C[C@H](N)C(=O)O [Ala, alanine]

Effect of pre-incubating LeuT with Na+ on the rate of substrate binding [1]: dramatically slowed
Compound: CC(C)C[C@H](N)C(=O)O [Leu, leucine]

EC50 ([2]; LiCl titration in the presence of 250 μM Ala, Hill coefficient fixed at 2.0, read-out: EC50 of dose-response fit of intracellular high-FRET state occupancy): 100 mM
EC50 ([2]; LiCl titration in the presence of 250 μM Ala, Hill coefficient fixed at 2.0, read-out: EC50 of dose-response fit of intracellular intermediate-FRET state occupancy): 67 mM
EC50 for inducing high-FRET state stabilization, fold higher than for Na+ ([3]; extracellular side): seven-fold higher
Compound: [Li+] [Li^+]

EC50 ([2]; NaCl titration in the presence of 250 μM Ala, read-out: EC50 values of dose-response fits of intracellular low-, intermediate- and high-FRET state occupancies): 8 to 20 mM
EC50 ([3]; Na+ titration, Hill coefficient fixed at 2.0, read-out: EC50 of dose-response fit of extracellular FRET state occupancy): 55 mM
Compound: [Na+] [Na^+, sodium]
